In a melting point compilation (Tetko et al.; mined from patent text by program, amines drawn as free bases though some values may be those of a salt):

Point of comparison: O=C(CCNC(=O)C(=Cc1ccccc1)CSC(=O)c1ccccc1)OCc1ccccc1, melting point 60 °C. Against it:
- CCCc1nc2c(N)nc3cc(OCCN4CCCC4)ccc3c2s1 — higher, 124 to 127 °C
- COCCn1cc2c(C3C(=O)Nc4ccc(Br)cc43)nc(NCCN3CCOCC3)nc2n1 (stereo unspecified) — higher, > 300 °C
- ONCc1ccccc1 — lower, 56 to 57 °C
- Nc1nc2c(ncn2OCC(O)CO)c(=O)[nH]1 (stereo unspecified) — higher, 252 to 253 °C
- CCCCCC1OCc2cc(C#N)ccc2O1 (stereo unspecified) — lower, 40.5 to 41 °C
- CC(C)(C)C(=O)C(Br)Cc1cccnc1 (stereo unspecified) — higher, 163 to 164 °C
- CC1(C)CCC2(Cc3ccc(Cl)cc3)OC12CO (stereo unspecified) — lower, 36 to 38 °C
- COC(=O)c1ccc(CCCc2cnc3nc(N)nc(O)c3c2)cc1 — higher, > 250 °C
- Cc1[nH]c(=O)c(C#N)c2c1CC(c1ccccc1)CC2 (stereo unspecified) — higher, > 290 °C
- CC(C)Cn1c(CCCCNC(=O)Nc2ccccc2)nc2c(N)nc3c(c21)CCCC3 — higher, 197 to 199 °C
- CC1Oc2ccc(CN3CCN(c4ccc(C(=O)O)cn4)CC3)cc2NC1=O (stereo unspecified) — higher, 243 to 248 °C
- O=C(CC1COC1)N[C@H]1CC[C@H](CCN2CCC(c3cccc4c3CCO4)CC2)CC1 — higher, 197 °C
- O=C(O)c1sc(C(F)(F)F)cc1OCc1ccccc1 — higher, 142 to 144 °C
- CC(=O)c1ccc(OCCCCN2C(=O)c3ccccc3C2=O)cc1 — higher, 112 to 114 °C
- O=C(Cc1ccccc1)N[C@@H]1C(=O)N2C(C(=O)O)=C(OS(=O)(=O)C(F)(F)F)NC[C@H]12 (racemic) — higher, 100 to 102 °C
- COc1cc(C(C)C)c(NC(=O)CN2CCN(CCSc3nc4cccc(C(C)=O)c4o3)CC2)c(C(C)C)c1 — higher, 185 to 186 °C
- CCN1c2ncc(CNc3cccc([N+](=O)[O-])c3)cc2C(=O)N(C)c2ccc(Cl)nc21 — higher, 171 to 172 °C
- CCOC(=O)c1cnc(Nc2ccccc2OCC)[nH]c1=O — higher, 220 to 221 °C
- O=C(Nc1cccc2c1C(=O)c1c-2n[nH]c1C1CCN(C(=O)N2C[C@@H]3C[C@H]2CN3)CC1)NN1CCOCC1 — higher, 196 to 198 °C
- COCCNS(=O)(=O)CC1CC(C)(C)Oc2ccc(OCCO)cc21 (stereo unspecified) — higher, 61 to 63 °C
- Cc1cccc(-n2c(=O)[nH]c3ccc(F)cc3c2=O)c1 — higher, 278 to 279 °C
- COc1ccc(NC(=O)N(C)C)cc1 — higher, 126 to 130 °C
- CCCCCNc1n[nH]c(C)c1C(=O)OCC — higher, 117 to 119 °C
- O=C(CSc1ccc(C(F)(F)F)cc1C(=O)O)c1ccccc1 — higher, 128 to 130 °C
- COc1c(C2CCN(CCCCNC(=O)c3ccc(-c4ccc(C#N)nc4)cc3)CC2)ccc2c1CCCC2 — higher, 179 to 181 °C
- CC(=O)NCCCn1cc(-c2cc3nccnc3[nH]2)c2ccccc21 — higher, 260 °C
- CON=CC(C)(C)C(O)(COc1cccc2ccccc12)Cn1ccnc1 (stereo unspecified) — higher, 177 to 178 °C
- CN(C)c1ccc(C(N)=NNc2ccc([N+](=O)[O-])cc2)cc1 — higher, 174 °C
- Cc1cc(-c2nc3cccnn3c2-c2ccnc(NC(=O)NC(C)(C)C)c2)ccc1F — higher, 234 to 235 °C
- O=C(c1cc(C2CCCCC2)ccn1)N(O)Cc1ccccc1 — higher, 106 to 110 °C
- CC(C)(C)OC(=O)NCCCc1ccccc1O — higher, 75 to 77 °C
- CN1CCC(c2cc3ccccc3c(=O)[nH]2)CC1 — higher, 255 to 257 °C
- Cc1nc(-c2ccc(C#CC3(O)CN4CCC3CC4)cc2)no1 (single isomer, unassigned; (-)) — higher, 211 to 212 °C
- O=C(C(=Cc1ccc(F)cc1)S(=O)(=O)c1ccccc1)c1ccccc1 — higher, 142 to 143 °C
- Sc1nc(-c2ccc(Cl)cc2)c(-c2cccs2)[nH]1 — higher, 274 to 276 °C
- Fc1ccc(C(Cl)(Cn2cncn2)C2(n3cncn3)CC2)cc1 (stereo unspecified) — higher, 81 to 84 °C
- NC(=O)N1C(=O)C(=C(OC(=O)c2cccnc2)c2cccs2)c2cc(F)c(Cl)cc21 — higher, 201 to 202 °C
- O=C(Nc1cc(OCCCON=Cc2ccc(-c3ccccc3)cc2)ccc1C(=O)O)c1ccc(C(F)(F)F)cc1 — higher, 206 to 207 °C
- Cc1ccc(Sc2ccccc2CN(C)C)c([N+](=O)[O-])c1 — higher, 109 to 111 °C
- O=C(Nc1ccc(-c2nnn[nH]2)cc1)Oc1ccc([N+](=O)[O-])cc1 — higher, > 260 °C
- CN(c1ccc(O)cc1)c1nc2ccccc2[nH]1 — higher, > 260 °C
- Cc1[nH]c(C#N)c(C)c1-c1nc2ccc(Oc3ccccc3)cc2[nH]1 — higher, 278 to 280 °C
- CCOC1=Nc2nc(C(C)(C)C)[nH]c2C2=N[C@H](Cc3ccccc3)CN12 — higher, 220 to 222 °C
- CC(=O)NC[C@H]1CN(c2ccc(N3CCN(C(=O)CCC(=O)c4ccc(CN(C)C)cc4)CC3)c(F)c2)C(=O)O1 — higher, 190 to 192 °C
- Cc1c(F)cccc1C(=O)Nc1ccc(C(=O)N2Cc3ccnn3Cc3ccccc32)cc1 — higher, 245 to 250 °C
- Cc1ccc(P(=O)(C(=O)c2c(C)cc(C)cc2C)C(=O)c2c(C)cc(C)cc2C)cc1 — higher, 151 to 152 °C
- CNC1c2ccccc2CC1N1CCCCC1 (stereo unspecified) — higher, > 260 °C
- CC12CCC(=O)C=C1NCC1C2CCC2(C)C(C(=S)c3ccccn3)CCC12 (stereo unspecified) — higher, 190 to 202 °C
- CCOC(=O)CC1NC(=O)c2ccccc21 (stereo unspecified) — higher, 116 to 118 °C
- CSc1ccc2c(=O)n([C@H](C)[C@](O)(Cn3cncn3)c3ccc(F)cc3F)cnc2c1 — higher, 152 to 153 °C
- COCc1nnc(-c2cccnc2)n1-c1c(C)c(Cl)cc2[nH]c(=O)c(=O)[nH]c12 — higher, > 300 °C
- O=C(O)Cc1c(C(=O)c2ccc(Cl)cc2)[nH]c2ccccc12 — higher, 221 to 224 °C
- CCn1ncc2c(NCc3ccccc3)c3ccc(O)cc3nc21 — higher, 252 to 254 °C
- COc1cc(C(C)C)c2c(c1)S(=O)(=O)N(COC(=O)c1cccs1)C2=O — higher, 139 to 141 °C
- Cc1ccc(C(=O)c2cc(C(C)(C)C)c(O)c(C(C)(C)C)c2)c(Cl)n1 — higher, 116 to 117 °C
- CCS(=O)(=O)Nc1cc(C2CCCCC2)cc2c1CCCC2c1c[nH]cn1 (stereo unspecified) — higher, 207 to 209 °C
- CNc1cc(S(=O)(=O)c2ccc(N)cc2)cc(Br)n1 — higher, 171 to 173 °C
- Cc1nc(CCO)c2c(n1)N(N)C(=O)C(C)(C)O2 — higher, 168 to 170 °C
- O=C1COc2cc(F)c([N+](=O)[O-])cc2N1 — higher, 200 to 202 °C
- Cc1ccccc1-c1ccc(C(=O)N2Cc3ccc(C(=O)NCc4ccc(OC(F)(F)F)cc4)n3Cc3ccccc32)cc1C — higher, 147 to 149 °C
- CC(C)(C(=O)O)c1nc2ccc(NCCCN3CCC(OC(c4ccccc4)c4ccccc4)CC3)nn2c1Cl — higher, 133 to 135 °C
- c1ccc(N2CCNc3nc4ccccc4n3CC2)cc1 — higher, 156 to 158 °C
- CCOC(=O)Cc1cc(C)c(C(=O)c2ccc(Cl)cc2)n1C — higher, 101 to 104 °C
- CN(C(=O)C(F)(F)F)C(C(=O)O)c1ccccc1 (stereo unspecified) — higher, 124 to 126 °C
- Cc1n[nH]c(=O)n1-c1ccc(OCC(F)(F)C(F)F)cc1 — higher, 206 to 207 °C
- CN1C(=O)C(=O)N(CCCCCBr)C1=S — lower, 48 to 50 °C
- CC(=O)N(Cc1cc(Br)cc2[nH]c(=O)c(=O)[nH]c12)CP(=O)(O)O — higher, > 280 °C
- CC(C)=NOCc1nc2c(N)nc3cccnc3c2n1CCCNC(=O)NC1CCCCC1 — higher, 207 to 208 °C
- O=C(NNC(=O)c1cccc([N+](=O)[O-])c1)c1ccc([N+](=O)[O-])cc1 — higher, 250 to 251 °C
- O=C1CCCc2cc(-c3ccccc3)ccc21 — higher, 99 to 100 °C
